# Assay: Xenon light resistance test, ink of Example 18 (Table 58)
# Type: physicochemical
# Settings: for each glossy paper (Table 58)
# Method: An ink of Example 18 was prepared as in Example 1 except that the compound represented by the above formula (200) was used instead of the compound represented by the above formula (101).
# Ink-jet recording was performed with an ink-jet printer (Canon, Inc., Product name: PIXUS ip7230) to allow each of the inks from Example 18 and Comparative Examples 1, 2 above to be attached on the following glossy papers 1 to 4. Upon performing recording, image patterns were created so that the density can be obtained in a gradation of 6 levels: 100%, 85%, 70%, 55%, 40%, and 25% to obtain a half-tone recorded article. The resulting recorded article was used as a test piece to perform the following tests.
# Glossy paper 1: Canon, Inc., Product name: Canon Photograph paper, platinum grade (PT-201)
# Glossy paper 2: Seiko Epson Corporation, Product name: Photograph paper Crispia
# Glossy paper 3: Brother Industries, Ltd., Product name: BP71G
# Glossy paper 4: FUJIFILM Corporation, Product name: Gasai Photo-finishing Pro
# When required, color measurements of a recorded image were performed using a colorimeter (Product name SpectroEye from X-rite, Inc.). Color measurements were performed under the conditions of a density standard of DIN NB, a wide viewing angle of 2 degrees, a light source of D65. […]
smiles,measurement,value
O=S(=O)(O)CCCOc1cc(N=Nc2ccc(Cl)c(S(=O)(=O)O)c2)c(Cl)cc1Nc1nc(Nc2cc(Cl)c(N=Nc3ccc(Cl)c(S(=O)(=O)O)c3)cc2OCCCS(=O)(=O)O)nc(N2CCN(c3nc(Nc4cc(Cl)c(N=Nc5ccc(Cl)c(S(=O)(=O)O)c5)cc4OCCCS(=O)(=O)O)nc(Nc4cc(Cl)c(N=Nc5ccc(Cl)c(S(=O)(=O)O)c5)cc4OCCCS(=O)(=O)O)n3)CC2)n1 [Example 18],"light resistance tests, results compared with Comparative Examples 1, 2",better results

# Reference: US11512203B2, “Water-soluble azo compound or salt thereof, ink and recording medium” (Nippon Kayaku Kabushiki Kaisha, priority 2016, dated 2022)
